According to patent US20260365671A1, “HETEROCYCLIC COMPOUND” (Takeda Pharmaceutical Company Limited, priority 2022, published 2026):

Assays:
[1] = biological target: T1, NLRP3 inflammasome (Homo sapiens, UniProt Q96P20); assay: IL-1β TR-FRET assay (THP-1 cells differentiated to macrophages with IFN-γ, LPS primed, ATP activated; HTRF); format: cell-based; details: THP-1 macrophages, 50 ng/mL LPS priming, compound 30 min, 20 mM ATP 2 hours
T1 construct: IL-1beta HTRF
Method: (§1) The biological activity of Compound (I) with respect to NLRP3 was determined using the following in vitro methods.
IL-1β TR-FRET Assay (Reported as IC50)
Monocytic THP-1 cells (ATCC: TIB-202) were maintained in accordance with the provider's instructions in RPMI media (Life Technologies, Cat #A10491-01); RPMI was supplemented with 10% heat inactivated fetal bovine serum (Corning, Cat #35-010-CV). The cells were differentiated into macrophages by the addition of 25 ng/mL IFN-γ (PeproTech, Cat #AF300-02-100UG) for 24 hours at 37 °C/5% CO2. Media was exchanged with fresh media with no FBS, and the cells were treated with 50 ng/mL LPS (priming step) (LPS-EK: Invivogen, Cat #tlrl-peklps). The cells were plated at 240,000 cells per well in 384-well flat-bottom cell culture plates (FALCON, Cat #353962) and were incubated for 24 hours at 37 °C/5% CO2. Compounds were serially diluted (half log dilutions) with DMSO and were finally diluted with Media with no FBS. The compounds were added to the cells in 384-well plates (added in 1:3) and then the plates were incubated for 30 minutes at 37 °C/5% CO2. The NLRP3 inflammasome was activated with the addition of 20 mM ATP (Sigma Cat #A3377-25G) and the cells were incubated for 2 hours at 37 °C/5% CO2. At the end of the incubation period, 30 μL supernatant was transferred to another 384-well plate and mixed on a plate shaker for 1 minutes. The supernatant was mixed with HTRF Antibody (Human IL1 beta kit, Cisbio, 62HIL1BPEH) in assay plates (Greiner Bio-One, Cat #784075) and the assay plates were incubated in shading box at room temperature for 16-24 hours. HTRF signal was measured by EnVision (Perkinelmer) in accordance with the manufacturer's instructions.
(§2) The IC50 values were calculated from a plot of percentage of inhibition versus the inhibitor concentration by a logistics curve fit according to: Y=[Bottom+(Top−Bottom)]/(1+10^[(Log IC50−X)·Hill Slope], where Y is the % inhibition at the inhibitor concentration, X, “Bottom” is the lowest inhibition value, i.e., 0%, “Top” is the maximum inhibition value, i.e., 100%, and the “Hill Slope” describes the slope of the sigmoidal curve between the “Bottom” and “Top” values. The curve fitting was conducted with XLfit (ver. 5.5.0.5, ID Business Solutions Limited) or internally developed software.
(§3) Table 2 lists in vitro biological assay data (IL-1β and TNF-α) for the compounds shown in the examples. These assays are described in the section entitled Biological Activity, above.

[2] = tested on: NF-κB pathway; assay: TNF-α assay (THP-1 cells differentiated to macrophages with IFN-γ, NF-κB pathway activated with LPS; ELISA); format: cell-based, Human; details: Homo sapiens, THP-1, THP-1 macrophages, compound 30 min, 50 ng/mL LPS 3 hours
Method: as §1
TNF-α Assay (Reported as IC50)
Monocytic THP-1 cells (ATCC: TIB-202) were maintained in accordance with the provider's instructions in RPMI media (Life Technologies, Cat #A10491-01); RPMI was supplemented with 10% heat inactivated fetal bovine serum (Hyclone Cat #SH30396.03). The cells were differentiated into macrophages by the addition of 25 ng/mL IFN-γ for 24 hours at 37 °C/5% CO2. Media was exchanged with fresh media with no FBS. The cells were plated at 40,000 cells per well in 384-well flat-bottom cell culture plates (Costar 3764) containing compounds (added in 1:1000) in a 1:3.16 serial dilution series in DMSO and were incubated for 30 minutes at 37 °C/5% CO2. The NF-κB pathway was activated with the addition of 50 ng/mL LPS and the cells were incubated for 3 hours at 37 °C/5% CO2. At the end of the incubation period, supernatant ([…]) was removed, and […] were monitored using an ELISA (Human TNF-α ELISA, R&D systems, Cat #DY210) according to the manufacturer's instructions.
as §2, §3

T1 sequence (Q96P20 whole entry): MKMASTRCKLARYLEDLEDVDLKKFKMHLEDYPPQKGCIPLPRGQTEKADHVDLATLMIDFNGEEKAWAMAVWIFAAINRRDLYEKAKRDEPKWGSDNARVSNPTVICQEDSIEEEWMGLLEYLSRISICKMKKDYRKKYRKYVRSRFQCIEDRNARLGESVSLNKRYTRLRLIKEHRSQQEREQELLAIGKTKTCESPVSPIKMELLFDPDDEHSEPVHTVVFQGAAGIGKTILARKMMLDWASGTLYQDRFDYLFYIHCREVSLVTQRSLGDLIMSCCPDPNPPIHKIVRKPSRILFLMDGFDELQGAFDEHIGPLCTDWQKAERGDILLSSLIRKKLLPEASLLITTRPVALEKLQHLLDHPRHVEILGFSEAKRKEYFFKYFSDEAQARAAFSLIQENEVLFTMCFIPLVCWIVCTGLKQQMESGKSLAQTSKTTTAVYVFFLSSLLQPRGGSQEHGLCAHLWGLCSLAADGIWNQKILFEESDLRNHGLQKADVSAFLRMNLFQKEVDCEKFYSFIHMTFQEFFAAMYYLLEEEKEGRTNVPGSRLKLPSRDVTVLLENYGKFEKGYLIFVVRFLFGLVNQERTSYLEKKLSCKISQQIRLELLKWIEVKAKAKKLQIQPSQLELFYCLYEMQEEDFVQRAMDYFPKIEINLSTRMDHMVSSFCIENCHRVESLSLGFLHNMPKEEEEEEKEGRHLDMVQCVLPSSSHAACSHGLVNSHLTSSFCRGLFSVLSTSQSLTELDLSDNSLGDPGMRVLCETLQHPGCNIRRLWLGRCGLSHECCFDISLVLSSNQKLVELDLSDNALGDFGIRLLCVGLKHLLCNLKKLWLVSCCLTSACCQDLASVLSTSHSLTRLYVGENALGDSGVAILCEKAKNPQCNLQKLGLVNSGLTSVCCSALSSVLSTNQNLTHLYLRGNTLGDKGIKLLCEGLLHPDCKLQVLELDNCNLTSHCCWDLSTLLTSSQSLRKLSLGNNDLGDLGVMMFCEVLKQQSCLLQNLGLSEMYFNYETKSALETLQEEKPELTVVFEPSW

| Compound | IC50 [1] [nM] | IC50 [2] [nM] |
| --- | --- | --- |
| CCN1C[C@H](Nc2nc3nn(-c4c(C)cc(C)cc4O)cc3s2)[C@@H](F)C1 (racemic) [Example 21, racemic mixture of 2-(5-{[(3R,4R)-1-ethyl-4-fluoropyrrolidin-3-yl]amino}-2H-pyrazolo[3,4-d][1,3]thiazol-2-yl)-3,5-dimethylphenol and 2-(5-{[(3S,4S)-1-ethyl-4-fluoropyrrolidin-3-yl]amino}-2H-pyrazolo[3,4-d][1,3]thiazol-2-yl)-3,5-dimethylphenol] | 160 | > 30000 |
| CCN1C[C@@H](F)[C@@H](Nc2nc3nn(-c4c(C)cc(C)cc4O)cc3s2)C1 (racemic) [Example 23, racemic mixture of 2-(5-{[(3R,4S)-1-ethyl-4-fluoropyrrolidin-3-yl]amino}-2H-pyrazolo[3,4-d][1,3]thiazol-2-yl)-3,5-dimethylphenol and 2-(5-{[(3S,4R)-1-ethyl-4-fluoropyrrolidin-3-yl]amino}-2H-pyrazolo[3,4-d][1,3]thiazol-2-yl)-3,5-dimethylphenol] | 210 | > 30000 |
| Cc1cc(C)c(-n2cc3sc(N[C@H]4CN(C(=O)CC5CC5)C[C@@H]4F)nc3n2)c(O)c1 (racemic) [Example 106, racemic mixture of 2-cyclopropyl-1-[(3R,4R)-3-fluoro-4-{[2-(2-hydroxy-4,6-dimethylphenyl)-2H-pyrazolo[3,4-d][1,3]thiazol-5-yl]amino}pyrrolidin-1-yl]ethan-1-one and 2-cyclopropyl-1-[(3S,4S)-3-fluoro-4-{[2-(2-hydroxy-4,6-dimethylphenyl)-2H-pyrazolo[3,4-d][1,3]thiazol-5-yl]amino}pyrrolidin-1-yl]ethan-1-one] | 310 | > 30000 |

Second part, the molecule after the results:

| IC50 [1] [nM] | IC50 [2] [nM] | Compound |
| --- | --- | --- |
| 1100 | > 30000 | Cc1cc(C)c(-n2cc3sc(N[C@H]4CN(C)C[C@H]4F)nc3n2)c(O)c1 (racemic) [Example 22, racemic mixture of 2-(5-{[(3R,4S)-4-fluoro-1-methylpyrrolidin-3-yl]amino}-2H-1-pyrazolo[3,4-d][1,3]thiazol-2-yl)-3,5-dimethyl-phenol and 2-(5-{[(3S,4R)-4-fluoro-methylpyrrolidin-3-yl]amino}-2H-pyrazolo[3,4-d][1,3]thiazol-2-yl)-3,5-dimethylphenol] |
| 440 | > 30000 | CC(=O)N1C[C@H](Nc2nc3nn(-c4c(C)cc(C)cc4O)cc3s2)[C@@H](F)C1 (racemic) [Example 104, racemic mixture of 1-[(3R,4R)-3-fluoro-4-{[2-(2-hydroxy-4,6-dimethylphenyl)-2H-pyrazolo[3,4-d][1,3]thiazol-5-yl]amino}pyrrolidin-1-yl]ethan-1-one and 1-[(3S,4S)-3-fluoro-4-{[2-(2-hydroxy-4,6-dimethylphenyl)-2H-pyrazolo[3,4-d][1,3]thiazol-5-yl]amino}pyrrolidin-1-yl] ethan-1-one] |
| 310 | > 30000 | CCC(=O)N1C[C@H](Nc2nc3nn(-c4c(C)cc(C)cc4O)cc3s2)[C@@H](F)C1 (racemic) [Example 105, racemic mixture of 1-[(3R,4R)-3-fluoro-4-{[2-(2-hydroxy-4,6-dimethylphenyl)-2H-pyrazolo[3,4-d][1,3]thiazol-5-yl]amino}pyrrolidin-1-yl]propan-1-one and 1-[(3S,4S)-3-fluoro-4-{[2-(2-hydroxy-4,6-dimethylphenyl)-2H-pyrazolo[3,4-d][1,3]thiazol-5-yl]amino}pyrrolidin-1-yl]propan-1-one] |
| 370 | > 30000 | CNC(=O)N1C[C@H](Nc2nc3nn(-c4c(C)cc(C)cc4O)cc3s2)[C@@H](F)C1 (racemic) [Example 119, racemic mixture of (3R,4R)-3-fluoro-4-{[2-(2-hydroxy-4,6-dimethylphenyl)-2H-pyrazolo[3,4-d][1,3]thiazol-5-yl]amino}-N-methylpyrrolidine-1-carboxamide and (3S,4S)-3-fluoro-4-{[2-(2-hydroxy-4,6-dimethylphenyl)-2H-pyrazolo[3,4-d][1,3]thiazol-5-yl]amino}-N-methylpyrrolidine-1-carboxamide] |
